In paper PMC5839231, “Isolation and Characterization of Protein Tyrosine Phosphatase 1B (PTP1B) Inhibitory Polyphenolic Compounds From Dodonaea viscosa and Their Kinetic Analysis” (Frontiers in Chemistry, 2018):
Where two headings read alike, the source gives them in different places.

Legend:
[1] = biological target: T1, Protein tyrosine phosphatase 1B (PTP1B) (Homo sapiens, UniProt P18031); test: PTP1B inhibitory kinetics (Lineweaver-Burk, Dixon and secondary plots); assay type: biochemical; settings: for Type of inhibition: Lineweaver-Burk plots, substrate 0.437-1.75 mM pNPP
T1 sequence (P18031 1-435): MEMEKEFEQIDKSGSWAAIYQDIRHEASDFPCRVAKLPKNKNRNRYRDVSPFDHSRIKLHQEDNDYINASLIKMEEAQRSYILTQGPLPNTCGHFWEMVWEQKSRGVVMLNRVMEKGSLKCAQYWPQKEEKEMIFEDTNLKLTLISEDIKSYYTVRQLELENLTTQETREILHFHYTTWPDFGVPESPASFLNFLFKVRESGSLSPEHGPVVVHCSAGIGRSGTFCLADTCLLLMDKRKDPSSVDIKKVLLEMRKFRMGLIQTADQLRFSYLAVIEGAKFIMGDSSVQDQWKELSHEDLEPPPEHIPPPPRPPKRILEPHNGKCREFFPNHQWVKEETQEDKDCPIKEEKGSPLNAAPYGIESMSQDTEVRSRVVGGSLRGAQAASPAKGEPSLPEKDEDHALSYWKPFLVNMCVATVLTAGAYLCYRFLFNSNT
Method: (§1) Protein tyrosine phosphatase 1B inhibitory assay was performed with slight modification to the previously reported method (Song et al., [2017]). Tris–HCl buffer (25 mM, pH 7.5) which contained 1 mM (ethylenediaminetetraacetic acid) EDTA, 1 mM dithiothreitol (DTT), and 2 mM β-mercaptoethanol was used as buffer solution, whereas p-nitrophenyl phosphate (pNPP), a substrate of PTP1B was utilized for enzyme activity measurement. Enzyme assay was started by mixing 10 μL of test compounds with 130 μL of Tris-HCl buffer solution in 96-well plate, then 20 μL of enzyme (EC 3.1.3.48, 1μg/mL), and finally 40 μL of substrate (4 mM pNPP) was added at 37°C for 10 min. During the substrate hydrolysis, pNPP was de-phosphorylated, giving product pNP, which was detected by Spectra Max M3 Multi-Mode Microplate reader (Molecular devices, USA) at a wavelength of 405 nm for 30 min. […] Kinetic parameters were determined by Line weaver-Burk and Dixon plots. Sigma Plot (SPCC Inc., Chicago, IL, USA) was utilized for data setting and calculation.
In order to study detailed kinetics of PTP1B, Michaelis-Menten equation (4) is applied, who's reciprocal is taken which transform to a new equation, Line weaver-Burk equation (5). Using this equation Line weaver-Burk plots were constructed, which were applied for the analysis of inhibitory kinetics of test compounds. Different inhibitor concentrations accompanied with varying substrate concentrations were used for determination of enzymes steady-state rates, subsequently kinetic parameters related to PTP1B inhibition were also determined. The values of inhibitory constants KI and KIS, when free enzyme binds with inhibitor (KI) or enzyme-substrate-complex interact with inhibitor (KIS) were obtained from secondary plots of the slopes and vertical intercept (1/V^appmax) vs. inhibitors concentration. The representative Equations (1–3) were used to acquire KI and KIS values (Chiari et al., [2011]).
For inhibition parameters, an assay was performed having different substrate concentrations (0.437–1.75 mM), and several dilutions of tested compounds.
The effects of different concentrations of the bioactive active compounds on the hydrolysis of p-nitrophenyl phosphate by PTP1B were studied. We assayed different concentrations (3.75, 7.5, 15, 30, 60, and 120 μM) of inhibitors (1-9) with the given enzyme and substrate. As a result, we observed a gradual decrease in enzyme activity (% activity) with increasing inhibitors concentrations as shown in Figure 2A. […] Plots of residual enzyme activity vs. enzyme concentration at different concentrations (0, 6.7, 13.5, and 27 μM) of compound 4 gave a family of lines which intersected on x-axis at 0 intercept. […] In order to explore the mechanistic behavior and kinetic features of the tested compounds, detailed kinetic study was performed. For this purpose the target enzyme was assayed in different concentrations of substrate (0.437, 0.875, 1.75 mM), in the presence of several dilutions of the respective compound, been graphically presented in double reciprocal plots (Linweaver-Burk and Dixon plots). Representatively, here we have explained compound 4 in detail, the Lineweaver-Burk plots of (4) produced a family of straight lines which intersected on the left side of y-axis and above the x-axis as shown in Figure 3A. The inhibitory constants (KI and KIS) were obtained by plotting the slopes and intercepts vs. different concentrations of compound 4 (Figure 3A, insets). […] In kinetic plots the abscissa [I] is the concentration of compound, where the coordinate1/V represents reciprocal of enzyme activity.

[2] = biological target: T1, Protein tyrosine phosphatase 1B (PTP1B); test: PTP1B inhibitory assay (hydrolysis of p-nitrophenyl phosphate, 405 nm); assay type: biochemical; settings: for IC50: pNPP substrate, 37°C, experiments repeated three times
Method: as §1

[3] = from Dixon plots, read-out: Ki (inhibition constant)

Row | Type of inhibition [1] | Ki [1, 3] | IC50 [2] | Reversibility of inhibition ([1]; residual enzyme activity vs. enzyme concentration at 0, 6.7, 13.5, 27 μM inhibitor) | KIS (inhibitor binding to enzyme-substrate complex) ([1]; secondary plot of intercepts vs. inhibitor concentration, Equation 3) | Ki ([1]; secondary plot of slopes vs. inhibitor concentration, Equation 2, read-out: KI (inhibitor binding to free enzyme)) | fold more potency than mother skeleton 1 ([2]; IC50 comparison with compound 1) | fold more potency than mother skeleton 2 ([2]; IC50 comparison with compound 2) | Compound
1 | Mixed | 27.3 µM | 57.9 ± 0.6 µM | – | – | – | – | – | COc1cc2oc(-c3ccc(O)cc3)c(OC)c(=O)c2c(O)c1OC [Compound 1, penduletin]
2 | Mixed | 6.9 µM | 18.7 ± 0.6 µM | – | – | – | – | – | COc1c(O)cc2oc(-c3ccc(O)cc3)c(OC)c(=O)c2c1O [Compound 3, viscosine]
3 | mixed type I | 4.6 µM | 13.5 ± 0.3 µM | reversible | 26.4 ± 0.4 µM | 4.1 ± 0.2 µM | 6 fold | 2.5 fold | COc1ccc(-c2oc3cc(O)c(OC)c(O)c3c(=O)c2OC)cc1CC=C(C)C [Compound 4, 5,7-dihydroxy-3,6-dimethoxy-2-(4-methoxy-3-(3-methylbut-2-enyl)phenyl)-4H-chromen-4-one]
4 | Mixed | 10.1 µM | 28.4 ± 0.9 µM | – | – | – | – | – | C=C(C)C(O)Cc1cc(-c2oc3cc(O)c(OC)c(O)c3c(=O)c2OC)ccc1OC (centres unmarked) [Compound 5, 5,7-dihydroxy-3′-(2-hydroxy-3-methylbutenyl)-3,6,4′-trimethoxy-flavone]
5 | Mixed | 22.8 µM | 56 ± 0.3 µM | – | – | – | – | – | COc1ccc(-c2oc3cc(O)c(OC)c(O)c3c(=O)c2OC)cc1CCC(C)CO (centres unmarked) [Compound 6]
6 | Mixed | 14.3 µM | 41.8 ± 0.5 µM | – | – | – | – | – | COc1c(O)cc2oc(-c3ccc(O)c(CCC(C)CO)c3)c(OC)c(=O)c2c1O (centres unmarked) [Compound 7, 5,7,4′-trihydroxy-3′-(3-hydroxymethylbutyl)-3,6-dimethoxyflavone]
7 | Non-competitive | 13 µM | 20.5 ± 0.8 µM | – | – | – | – | – | CC1OC(OCC2OC(Oc3c(-c4ccc(O)cc4)oc4cc(O)cc(O)c4c3=O)C(O)C(O)C2O)C(O)C(O)C1O (centres unmarked) [Compound 8, Kaempferol 3-O-rutinoside]
8 | Non-competitive | 26.4 µM | 42.9 ± 0.4 µM | – | – | – | – | – | COc1cc(-c2oc3cc(O)cc(O)c3c(=O)c2OC2OC(COC3OC(C)C(O)C(O)C3O)C(O)C(O)C2O)ccc1O (centres unmarked) [Compound 9, Isorhamnetin3-O-robinobioside]
